According to US7405211B2, “Therapeutic morpholino-substituted compounds” (AstraZeneca AB, priority 2000, dated 2008):

Key:
[1] = system: K562 (leukaemia derived) and U937 (moncytic) cell lines; assay: Cell proliferation assay; type: cell-based; conditions: 20 μM, 4 day incubation
Procedure: The anti-proliferative activity of the compounds of this invention from all three chemical classes was determined using K562 (leukaemia derived) and U937 (moncytic) cell lines. The cytotoxic activity of the compounds was monitored over four days by counting cell number and determining cell viability using a colourimetric assay metabolic activity.

PI3K γ = target: T1, PI3K γ (Homo sapiens, UniProt P48736); assay: In vitro enzyme assay PI3K γ (recombinant); type: biochemical; conditions: recombinant γ isoform
T1 construct: made in house
Procedure: (§1) In vitro enzyme assays were conducted as a primary screen to determine drug candidate isoform affinity and specificity.
(§2) The α and β isoforms of the PI3K were immunoprecipitated from a platelet lysate using an antibody that recognised the p85 regulatory subunit common to both forms of the enzyme. The γ isoform was produced as a recombinant protein in the Thrombogenix laboratories. […] Standard phosphorylation assays using phosphatidylinositol and ^32P were used to measure the enzyme activity in the immunoprecipates in the presence or absence of an inhibitor. Enzyme activity was determined over a range of inhibitor concentrations to establish an IC50 value.

[2] = system: PI 3-kinase immunoprecipitated from human platelets; assay: In vitro PI 3-kinase assay (32P incorporation into PI); type: biochemical; conditions: PI 3-kinase from human platelets, PI substrate
Procedure: The effect of TGX-25, TGX-33, TGX-37, TGX-40, TGX-41, TGX-57, TGX-84, TGX-90, TGX-93, TGX-98, TGX-99, TGX-101, TGX-106, TGX-107, TGX-108, TGX-109, TGX-111, TGX-112, TGX-113, TGX-115, TGX-120, TGX-121, TGX-123, TGX-124, TGX-126, TGX-127, TGX-130 or TGX-131on PI 3-kinase activity was determined using an in vitro PI 3-kinase assay. This assay was performed using PI 3-kinase immunoprecipitated from human platelets as the enzyme and PI as the substrate. The PI 3-kinase activity was quantitated by measuring the enzymatic incorporation of [^32P] into PI, forming PI([^32P]-3)P, as previously described (Susa et al., 1992, The Journal of Biological Chemistry 267(32):22951-22956.
Washed human platelets were lysed in Triton X-100 lysis buffer (10 mM Tris, pH 7.4, 1% Triton X-100, 2 mM EDTA, 1 mM PMSF) for 30 minutes. The Triton X-100 insoluble fraction was removed by centrifugation of the cell lysates at 15,000 g for 10 minutes. PI 3-kinase was immunoprecipitated by mixing 500 μg of the cell lysate with 1 μg of a rabbit anti-rat antibody against the p85/110 form of PI 3-kinase and 30 μl of 50% Protein A-sepharose beads for 2 hours at 4° C. The Protein A-sepharose-bound PI 3-kinase was isolated by pelleting the beads at 15,000 g for 5 seconds, and washing three times with ice-old Triton X-100 lysis buffer followed by four washes with PI 3-kinase assay buffer (20 mM HEPES, pH 7.4, 1 mM EGTA, 5 mM MgCl2).
PI stored in CHCl3 was dried under N2, resuspended in the lipid buffer (50 mM HEPES, pH 7.2, 1 mM EDTA) at a final concentration of 330 μg/ml, and sonicated for 6 minutes on ice. PI([^32P]-3)P was generated by mixing the immunoprecipitated PI 3-kinase for 20 minutes with 40 μl of the PI, 10 μl of ATP (1 mM) and ^32P-r-ATP (0.5 μCi, 1 μCi/nmol), 10 μl of 10× kinase buffer, in a final assay volume of 100 μl adjusted with H2O. TGX-25, TGX-33, TGX-37, TGX-40, TGX-41, TGX-57, TGX-84, TGX-90, TGX-93, TGX-98, TGX-99, TGX-101, TGX-106, TGX-107, TGX-108, TGX-109, TGX-111, TGX-112, TGX-113, TGX-115, TGX-120, TGX-121, TGX-123, TGX-124, TGX-126, TGX-127, TGX-130 or TGX-131 was preincubated with the PI 3-kinase for 5 minutes prior to the addition of ATP. The assay was terminated with 100 μl of 1 N HCl, and the PI([^32P]-3)P product extracted with 200 μl chloroform:methanol (1:1) and 500 μl 2 M KCl. The PI([^32P]-3)P in the chloroform phase was resolved by thin layer chromatography using a solvent system containing CHCl3:MeOH:HAC:H2O (43:38:5:7) (v:v:v:v), and visualized by autoradiography. The PI([^32P]-3)P spots were then scraped off from the TLC plates, deacylated with 1 ml methylamine:butanol:methanol (42:9:47) (v:v:v) for 4 hours at 53° C., and quantitated using a liquid scintillation counter (LKB 1209 RackBETA).

PI3K α/β isoforms = assay: In vitro enzyme assay PI3K α/β; type: biochemical; conditions: immunoprecipitated from platelet lysate
Procedure: as §1, §2

tyrosine kinase fyn = tyrosine kinase fyn (Homo sapiens, UniProt P06241); assay: Enzyme screening assay: tyrosine kinase fyn; type: biochemical
Source text: (§3) The two leading compounds of the quinolone series, TGX155 and TGX84 were screened for activity against seven enzymes related to PI3K in function or substrate specificity, viz: ATPase, PDE4, tyrosine kinases EGF and fyn, protein kinases A and C, and tyrosine phosphatase.

PI4K = target: T2, PI4K; assay: In vitro enzyme assay PI4K; type: biochemical; conditions: PI4K isolated from platelets; read-out: IC50 against PI4K
T2 construct: PI4K was isolated from platelets in a similar manner using a PI4K specific antibody
Procedure: In vitro enzyme assays were conducted as a primary screen to determine drug candidate isoform affinity and specificity. The affinity of two leading compounds of the quinolone series (TGX84 and TGX155) for a closely related enzyme family, PI4K, was also determined to maximise compound specificity and therefore minimise potential adverse biochemical events.
The α and β isoforms of the PI3K were immunoprecipitated from a platelet lysate using an antibody that recognised the p85 regulatory subunit common to both forms of the enzyme. The γ isoform was produced as a recombinant protein in the Thrombogenix laboratories. PI4K was isolated from platelets in a similar manner using a PI4K specific antibody. Standard phosphorylation assays using phosphatidylinositol and ^32P were used to measure the enzyme activity in the immunoprecipates in the presence or absence of an inhibitor. Enzyme activity was determined over a range of inhibitor concentrations to establish an IC50 value.

tyrosine kinase EGF = tyrosine kinase EGF (Homo sapiens, UniProt P00533); assay: Enzyme screening assay: tyrosine kinase EGF; type: biochemical
Source text: as §3

[3] = system: platelet thrombus formation; assay: Whole-blood flow assay: platelet thrombus formation on vWf matrix (platelet LDH); type: cell-based; conditions: shear rate 1800 s^−1
Procedure: The inhibitory effect of TGX-40 on platelet thrombus formation was examined using a whole-blood flow assay, since thrombi formed by washed platelets are small and poorly reproducible. Anticoagulated whole blood was incubated with 50, 100, or 200 μM TGX-40, or control buffer (0.1% DMSO) for 30 minutes with gentle rocking prior to perfusion through vWf-coated glass microslides for 2 minutes at a shear rate of 1800 s^−1. Non-adherent platelets were removed by washing for 10 minutes at 1800 s^−1, and adherent erythrocytes were lysed with 1% ammonium oxalate. The level of thrombus formation was quantitated indirectly by measuring platelet LDH (U/L) levels in the whole cell lysates by spectrophotometry. Following a 2-minute perfusion of whole blood, platelet-rich thrombi were observed over the surface of the microslide. […] As illustrated graphically in FIG. 2, pretreatment of whole blood with 50, 100, and 200 μM TGX-40 led to a decrease of 25, 53, and 80% in thrombus formation relative to control.

platelets = assay: Flow-based reconstitution assay: platelet adhesion to vWf-coated glass microslides; type: cell-based; conditions: 30 min pretreatment, shear rate 1800 s^−1
Procedure: The effect of TGX-40 on platelet adhesion was examined using a flow-based adhesion assay. Washed platelets were pretreated with 10, 25, or 50 μM TGX-40, or control buffer (0.1% DMSO) for 30 minutes at 37° C. prior to reconstitution with red blood cells to a hematocrit of 50%. The platelets and reconstituted red blood cells were perfused through vWf-coated glass microslides for 1 minute at a shear rate of 1800 s^−1. Non-adherent cells were removed by washing for 10 minutes at 1800 s^−1 and the number of adherent platelet were quantitated and expressed as the mean±SEM. As illustrated graphically in FIG. 1, TGX40 inhibited the ability of platelets to adhere in a dose-dependent manner, showing a decrease of 51, 67 and 86% in platelet adhesion when platelets were pretreated with 10, 25, and 50 μM TGX-40.

[4] = system: rats producing regular cyclic flow reductions (CFRs); assay: Animal model of internal carotid artery occlusion (Folts model, cyclic flow reductions); type: in vivo; conditions: rat
Source text: The inhibitory effect of TGX-40 was examined in the well established animal model of arterial thrombosis of Folts et al., 1982, Circulation 65:248-255. This model is used to investigate the effects of antithrombotic drugs on clotting time in vivo in response to a crush injury followed by arterial stenosis.
The carotid artery of an anesthetized rat is dissected out, and an electromagnetic flow probe is placed around the artery to measure blood flow. Proximal to the flow probe, the artery is clamped with surgical forceps covered with silicone tubing to cause intimal and medial damage to the vessel wall. A ligature, or plastic cylinder of appropriate inside diameter is laced around the artery to produce a 70% reduction in arterial diameter.
Platelets aggregate in the area of the stenosed and damaged arterial vessel, gradually forming an occlusive platelet thrombus, seen as a decrease in blood flow. As the thrombus forms, blood pressure increases, causing the thrombus to fragment and embolize distal to the stenosed site. […] This causes a sudden restoration of blood flow. Platelets again aggregate in the area of the stenosed and damaged arterial vessel, repeating the thrombus-embolization pattern. […]
TGX-40 was administered at doses of 1.6 mg/kg and 3.2 mg/kg via the jugular vein and the stabilization of blood flow was recorded.

[5] = system: platelet thrombus formation; assay: Platelet thrombus formation under flow, citrated whole blood, vWf-coated microcapillary tubes (LDH); type: cell-based; conditions: 50, 100, 200 μM, 600 s^−1
Procedure: Citrated whole blood was pretreated with 50, 100 or 200 μM TGX-84, or control buffer (0.1% DMSO) for 10 minutes at 37° C. Blood was perfused through von Willebrand factor-(vWf) coated microcapillary tubes for 2 minutes at 600 s^−1. Non-adherent cells were removed by perfusion of buffer for 2 minutes at 600 s^−1 and any adherent erythrocytes lysed through treatment with 1% ammonium oxalate. Adherent platelets were then lysed through addition of 1% Triton X-100 and lactate dehydrogenase (LDH) levels (U/L) analysed by spectrophotometry.

T1 sequence (P48736 whole entry, species assumed, canonical isoform): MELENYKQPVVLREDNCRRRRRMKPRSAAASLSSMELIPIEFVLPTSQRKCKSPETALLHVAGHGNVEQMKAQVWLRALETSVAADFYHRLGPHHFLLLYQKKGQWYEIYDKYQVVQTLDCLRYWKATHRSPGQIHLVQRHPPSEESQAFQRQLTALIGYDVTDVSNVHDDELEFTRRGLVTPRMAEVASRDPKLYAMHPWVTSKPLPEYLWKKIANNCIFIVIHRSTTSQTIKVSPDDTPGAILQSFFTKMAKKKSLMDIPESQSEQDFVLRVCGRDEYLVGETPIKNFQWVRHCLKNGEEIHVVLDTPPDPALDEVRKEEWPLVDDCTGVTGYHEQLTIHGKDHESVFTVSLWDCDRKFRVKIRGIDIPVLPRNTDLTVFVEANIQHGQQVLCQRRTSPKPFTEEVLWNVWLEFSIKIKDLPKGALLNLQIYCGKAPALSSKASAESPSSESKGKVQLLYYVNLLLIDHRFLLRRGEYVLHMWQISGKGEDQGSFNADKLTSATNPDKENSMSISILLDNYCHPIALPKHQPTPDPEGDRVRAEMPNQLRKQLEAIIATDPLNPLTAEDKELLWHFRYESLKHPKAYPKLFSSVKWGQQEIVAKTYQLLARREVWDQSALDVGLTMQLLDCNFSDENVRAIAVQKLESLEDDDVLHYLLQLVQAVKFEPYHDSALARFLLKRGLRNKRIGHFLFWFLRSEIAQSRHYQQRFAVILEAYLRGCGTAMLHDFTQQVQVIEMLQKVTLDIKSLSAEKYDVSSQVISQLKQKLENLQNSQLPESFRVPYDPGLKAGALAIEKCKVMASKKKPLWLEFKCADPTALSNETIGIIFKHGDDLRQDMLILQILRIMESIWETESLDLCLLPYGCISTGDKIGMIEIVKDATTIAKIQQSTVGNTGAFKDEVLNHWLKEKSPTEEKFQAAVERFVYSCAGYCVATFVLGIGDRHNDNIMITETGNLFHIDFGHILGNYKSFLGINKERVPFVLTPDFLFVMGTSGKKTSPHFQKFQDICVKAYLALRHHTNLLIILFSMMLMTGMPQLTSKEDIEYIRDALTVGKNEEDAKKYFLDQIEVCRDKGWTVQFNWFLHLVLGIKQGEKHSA
Sequence of tyrosine kinase EGF (P00533 25-1210): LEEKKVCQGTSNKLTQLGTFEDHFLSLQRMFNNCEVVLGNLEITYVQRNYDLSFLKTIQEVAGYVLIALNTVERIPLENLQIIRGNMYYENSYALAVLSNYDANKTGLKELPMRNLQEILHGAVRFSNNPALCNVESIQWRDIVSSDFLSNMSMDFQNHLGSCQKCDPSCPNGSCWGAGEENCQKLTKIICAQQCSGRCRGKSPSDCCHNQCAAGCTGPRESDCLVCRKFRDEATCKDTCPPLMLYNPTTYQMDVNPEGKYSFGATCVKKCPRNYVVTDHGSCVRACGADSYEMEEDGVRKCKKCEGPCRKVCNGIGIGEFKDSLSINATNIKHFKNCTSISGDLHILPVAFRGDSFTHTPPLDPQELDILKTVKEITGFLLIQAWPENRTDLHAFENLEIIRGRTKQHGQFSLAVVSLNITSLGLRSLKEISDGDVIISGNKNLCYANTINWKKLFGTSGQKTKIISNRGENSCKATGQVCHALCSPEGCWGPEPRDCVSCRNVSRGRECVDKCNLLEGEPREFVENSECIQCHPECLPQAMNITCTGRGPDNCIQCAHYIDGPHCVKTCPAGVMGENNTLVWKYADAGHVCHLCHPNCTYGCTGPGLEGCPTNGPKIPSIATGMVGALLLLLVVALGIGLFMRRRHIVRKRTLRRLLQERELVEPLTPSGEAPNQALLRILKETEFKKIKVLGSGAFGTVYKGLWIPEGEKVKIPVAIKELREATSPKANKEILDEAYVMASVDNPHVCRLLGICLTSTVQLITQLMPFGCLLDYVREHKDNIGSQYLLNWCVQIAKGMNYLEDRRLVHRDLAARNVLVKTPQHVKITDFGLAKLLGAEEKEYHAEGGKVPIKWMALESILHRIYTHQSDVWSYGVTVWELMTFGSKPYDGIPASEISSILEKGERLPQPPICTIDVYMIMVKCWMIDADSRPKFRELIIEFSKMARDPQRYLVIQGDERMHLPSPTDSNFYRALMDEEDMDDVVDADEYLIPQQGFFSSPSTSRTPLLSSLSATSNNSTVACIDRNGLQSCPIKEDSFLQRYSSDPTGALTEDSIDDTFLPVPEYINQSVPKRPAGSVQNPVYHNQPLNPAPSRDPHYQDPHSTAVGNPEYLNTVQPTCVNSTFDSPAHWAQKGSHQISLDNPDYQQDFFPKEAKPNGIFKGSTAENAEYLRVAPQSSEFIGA
Sequence of tyrosine kinase fyn (P06241 whole entry): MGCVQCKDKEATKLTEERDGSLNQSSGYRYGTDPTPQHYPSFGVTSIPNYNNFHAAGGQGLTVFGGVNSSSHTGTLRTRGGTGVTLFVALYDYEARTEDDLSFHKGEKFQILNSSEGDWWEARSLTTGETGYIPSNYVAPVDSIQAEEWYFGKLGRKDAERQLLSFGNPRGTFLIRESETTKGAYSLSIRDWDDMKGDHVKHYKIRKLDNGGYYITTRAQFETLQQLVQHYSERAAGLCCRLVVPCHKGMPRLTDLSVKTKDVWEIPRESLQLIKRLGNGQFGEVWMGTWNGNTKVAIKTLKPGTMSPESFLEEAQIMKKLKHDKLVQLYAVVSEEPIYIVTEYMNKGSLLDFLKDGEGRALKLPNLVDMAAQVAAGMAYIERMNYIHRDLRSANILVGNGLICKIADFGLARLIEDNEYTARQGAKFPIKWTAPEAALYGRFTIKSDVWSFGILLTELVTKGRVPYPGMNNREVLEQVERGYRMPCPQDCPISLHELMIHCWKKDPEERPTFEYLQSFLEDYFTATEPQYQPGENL

Structure (SMILES) | % Cells remaining [1] [%] | IC50 (PI3K γ) [nM] | IC50 [2] [nM] | IC50 (PI3K α/β isoforms) [nM] | IC50 (tyrosine kinase fyn) [nM] | IC50 (PI4K) [nM] | IC50 (tyrosine kinase EGF) [nM] | other results
Cc1cc(CNc2ccc(F)cc2C)c2nc(N3CCOCC3)cc(=O)n2c1 [TGX-186] | 1.5 |  |  |  |  |  |  | 
Cc1cc(NCc2ccccc2Cl)c2nc(N3CCOCC3)cc(=O)n2c1 [TGX-167] | 1.5 | 5000 to 10000 | 50 | 50 |  |  |  | 
Cc1cc(F)ccc1Oc1cccc2c(=O)cc(N3CCOCC3)[nH]c12 [TGX-155, 8-(4′-Fluoro-2′-methylphenoxy)-2-morpholino-4-quinolone] |  | 5000 | 20 | 20 | > 100000 | 100000 | > 100000 | 
Cc1cc(N[C@H](C)c2ccccc2)c2nc(N3CCOCC3)cc(=O)n2c1 [TGX-123] | 10 |  | 200 |  |  |  |  | 
O=c1cc(N2CCOCC2)nc2c(Cc3ccccc3)cccn12 [TGX-40] | 75 |  | ~1500 |  |  |  |  | decrease in thrombus formation relative to control ([3]; 50 μM): 25%; decrease in thrombus formation relative to control ([3]; 100 μM): 53%; decrease in thrombus formation relative to control ([3]; 200 μM): 80%; decrease in platelet adhesion (platelets; 10 μM): 51%; decrease in platelet adhesion (platelets; 25 μM): 67%; decrease in platelet adhesion (platelets; 50 μM): 86%; treated animals returned to baseline within 10 minutes ([4]; 1.6 mg/kg via the jugular vein): 90%; treated animals returned to baseline within 10 minutes ([4]; 3.2 mg/kg via the jugular vein): 90%
O=c1cc(N2CCOCC2)[nH]c2c(Oc3ccccc3)cccc12 [TGX-84, 2-Morpholino-8-phenoxy-4-quinolone] |  | 5000 | 100 | 100 | > 100000 | 100000 | > 100000 | thrombosis formation relative to control [5]: decrease in thrombosis formation relative to control
